Experimental data taken from patent US20110053773A1, “METHODS OF IMPROVING NUTRITIONAL VALUE OF PLANTS” (UNIVERSITY OF TENNESSEE RESEARCH FOUNDATION, priority 2009, published 2011).

Experiments:
Type in all cases: in vivo
[1] = tested on: sweet corn (Zea mays var. rugosa) cultivar 'Incredible'; test: Content analysis of sweet corn ears: crude protein, amino acids, detergent fiber, fatty acids, minerals (Example 1); conditions: POST at b59 rates; every treatment incl. check also got atrazine 560 g ai/ha + COC 1% v/v; relative to treated check (atrazine), check=0
From the text: Herbicide treatments were applied in a water carrier at 23 gallons of solution per acre on a field site near Knoxville, Tenn. and Painter, Va. Treatments include the following: 1) nicosulfuron at 35 g ai/ha (Accent); 2) mesotrione at 105 g ai/ha (Callisto); 3) nicosulfuron at 35 g ai/ha+mesotrione at 105 g ai/ha (Callisto+Accent); 4) tembotrione at 92 g ai/ha+isoxadifen-ethyl at 46 g ai/ha (Laudis); 5) topramezone at 15 g ai/ha (Impact); 6) nicosulfuron at 35 g ai/ha+isoxadifen-ethyl at 9 g ai/ha (Accent Q); 7) nicosulfuron at 35 g ai/ha+isoxadifen-ethyl at 9 g ai/ha+topramezone at 15 g ai/ha (Accent Q+Impact); 8) nicosulfuron 35 g ai/ha+isoxadifen-ethyl at 9 g ai/ha+mesotrione at 105 g ai/ha (Accent Q+Callisto); 9) treated check (atrazine or Aatrex). All treatments included a PRE application of atrazine plus metolachlor in order to maintain weed free conditions. In addition, all POST treatments (including the treated check) included atrazine at 560 g ai/ha and crop oil concentrate at 1% v/v. […] Sweet corn was harvested from the center two rows of each four row plot and weighed in the husk.

[2] = tested on: sweet corn cultivars 'Merit', 'Temptation', 'Incredible'; test: Kernel carotenoids of sweet corn after mesotrione and atrazine (Example 3); set-up: Kernel carotenoids: Lutein / Kernel carotenoids: Zeaxanthin: unit not given here; conditions: mesotrione 105, atrazine 560 g ai/ha
Description: (§1) Studies were conducted in a field in Knoxville, Tenn. to ascertain the growth, stress tolerance and nutritional quality differences following postemergence applications of herbicides mesotrione and atrazine, alone and in mixtures together, on the young sweet corn cultivars: ‘Merit’ (yellow-kernel sensitive genotype), ‘Temptation’ (bicolor tolerant genotype), and ‘Incredible’ (yellow-kernel moderately sensitive genotype).
(§2) Herbicide treatments were applied as follows: 1) untreated control; 2) mesotrione (meso) at 105 g ai/ha EPOST; 3) mesotrione at 105+atrazine at 560 g ai/ha EPOST; 4) atrazine at 560 g ai/ha EPOST; 5) mesotrione at 105 g ai/ha LPOST; 6) mesotrione at 105+atrazine at 560 g ai/ha LPOST; and 7) atrazine at 560 g ai/ha LPOST. Visual ratings of plant growth were taken during season, and kernels for carotenoids were measured at harvest.

[3] = tested on: sweet corn cultivars 'Merit', 'Temptation', 'Incredible'; test: Visual leaf tissue bleaching of sweet corn (Example 3, Table 9); conditions: mesotrione 105, atrazine 560 g ai/ha
Description: as §1, §2

[4] = 'Incredible' moderately sensitive genotype, EPOST
[5] = 'Incredible' moderately sensitive genotype, LPOST
[6] = 'Merit' sensitive genotype, EPOST
[7] = 'Merit' sensitive genotype, LPOST

Structure (SMILES): CCNc1nc(Cl)nc(NC(C)C)n1 [Atrazine*AATREX, atrazine]
- Acid DF [1]: 0 % of check
- Alanine [1]: 0 % of check
- Amino Acid [1]: 0 % of check
- Aspartic ac [1]: 0 % of check
- Cysteine [1]: 0 % of check
- Glutamic ac [1]: 0 % of check
- Glycine [1]: 0 % of check
- Isoleucine [1]: 0 % of check
- Leucine [1]: 0 % of check
- Lysine [1]: 0 % of check
- Methionine [1]: 0 % of check
- Neutral DF [1]: 0 % of check
- Proline [1]: 0 % of check
- Protein [1]: 0 % of check
- Threonine [1]: 0 % of check
- Valine [1]: 0 % of check
- calcium [1]: 0 % of check
- copper [1]: 0 % of check
- iron [1]: 0 % of check
- magnesium [1]: 0 % of check
- manganese [1]: 0 % of check
- mon fattyac [1]: 0 % of check
- phosphorous [1]: 0 % of check
- polyfattyac [1]: 0 % of check
- potassium [1]: 0 % of check
- sat fattyac [1]: 0 % of check
- sodium [1]: 0 % of check
- tot fattyac [1]: 0 % of check
- zinc [1]: 0 % of check
- Lutein % change from untreated control [2, 4]: +7.6%
- Zeaxanthin % change from untreated control [2, 4]: −0.0%
- Kernel carotenoids: Lutein ([2]; 'Incredible' moderately sensitive genotype, EPOST, untreated 0.328): 0.353
- Kernel carotenoids: Zeaxanthin ([2]; 'Incredible' moderately sensitive genotype, EPOST, untreated 0.448): 0.447
- Lutein % change from untreated control [2, 5]: +6.0%
- Zeaxanthin % change from untreated control [2, 5]: +1.3%
- Kernel carotenoids: Lutein ([2]; 'Incredible' moderately sensitive genotype, LPOST, untreated 0.328): 0.347
- Kernel carotenoids: Zeaxanthin ([2]; 'Incredible' moderately sensitive genotype, LPOST, untreated 0.448): 0.454
- Kernel carotenoids: Lutein [2, 6]: 0.692
- Lutein % change from untreated control [2, 6]: +9.5%
- Zeaxanthin % change from untreated control [2, 6]: +10.8%
- Kernel carotenoids: Zeaxanthin ([2]; 'Merit' sensitive genotype, EPOST, untreated 0.509): 0.564
- Kernel carotenoids: Lutein [2, 7]: 0.664
- Lutein % change from untreated control [2, 7]: +5.1%
- Zeaxanthin % change from untreated control [2, 7]: +8.1%
- Kernel carotenoids: Zeaxanthin ([2]; 'Merit' sensitive genotype, LPOST, untreated 0.509): 0.550
- Leaf Tissue Visual Bleaching (%) ([3]; ‘Incredible’, 7 DAT, EPOST): 13%
- Leaf Tissue Visual Bleaching (%) ([3]; ‘Incredible’, 7 DAT, LPOST): 0%
- Leaf Tissue Visual Bleaching (%) ([3]; ‘Incredible’, 14 DAT, EPOST): 13%
- Leaf Tissue Visual Bleaching (%) ([3]; ‘Incredible’, 14 DAT, LPOST): 0%
- Leaf Tissue Visual Bleaching (%) ([3]; ‘Incredible’, 21 DAT, EPOST): 0%
- Leaf Tissue Visual Bleaching (%) ([3]; ‘Incredible’, 21 DAT, LPOST): 0%
- Leaf Tissue Visual Bleaching (%) ([3]; ‘Merit’, 7 DAT, EPOST): 3%
- Leaf Tissue Visual Bleaching (%) ([3]; ‘Merit’, 7 DAT, LPOST): 0%
- Leaf Tissue Visual Bleaching (%) ([3]; ‘Merit’, 14 DAT, EPOST): 2%
- Leaf Tissue Visual Bleaching (%) ([3]; ‘Merit’, 14 DAT, LPOST): 0%
- Leaf Tissue Visual Bleaching (%) ([3]; ‘Merit’, 21 DAT, EPOST): 0%
- Leaf Tissue Visual Bleaching (%) ([3]; ‘Merit’, 21 DAT, LPOST): 0%
